≈ marks a conversion by molar mass, not a printed value.

The test system of experiment [1] is Leuconostoc pseudomesenteroides. Kind of experiment: agar dilution MIC, lactic acid bacteria. In kind it is cell-based.
The subject of a further experiment is Stapylococcus aureus. Kind of experiment: mouse protection, experimentally-induced infection. It is filed as in vivo. The conditions noted are these: mice infected with Stapylococcus aureus, two doses.
In the next experiment the test system is Pediococcus acidilacti. Kind of experiment: agar dilution MIC, lactic acid bacteria. It is filed as cell-based. The conditions noted are these: Pediococcus.
Experiment [2] relates to Staphylococcus epidermidis 270. Kind of experiment: broth micro-dilution MIC. In kind it is cell-based. The method, then:
(§1) The formula I compounds have in vitro and in vivo activity against Gram-positive pathogenic bacteria. The MIC's were determined using a standard broth micro-dilution assay.
Background: In broth dilution the organism is exposed to a series of concentrations in liquid medium.

Another experiment has as its system Entercoccus faecium 180. Kind of experiment: broth micro-dilution MIC. It is filed as cell-based. The method, then:
as §1

Experiment [3] has as its system Enterococcus gallinarum 245. Kind of experiment: broth micro-dilution MIC. It is filed as cell-based. The conditions noted are these: Enterococcus gallinarum, GALLINARUM
The method, then:
as §1

Experiment [4] relates to Staphylococcus haemolyticus 415. Kind of experiment: broth micro-dilution MIC. In kind it is cell-based. The method, then:
as §1

The test system of experiment [5] is Haemophilus influenzae RD. The experiment is described as follows: broth micro-dilution MIC. In kind it is cell-based. The conditions noted are these: Haemophilus influenzae. The method, then: as §1
For the next experiment, the system named is Entercoccus faecium 2041. The experiment is described as follows: broth micro-dilution MIC. In kind it is cell-based. The method, then: as §1
For experiment [6], the system named is Streptococcus pneumoniae P1. The experiment is described as follows: broth micro-dilution MIC. In kind it is cell-based. The protocol: as §1
Experiment [7] has as its system Staphylococcus haemolyticus 105. The experiment is described as follows: broth micro-dilution MIC. In kind it is cell-based. The protocol: as §1
A further experiment concerns Escherichia coli EC14. The experiment is described as follows: broth micro-dilution MIC. It is filed as cell-based. The protocol:
as §1

The subject of experiment [8] is Leuconostoc mesenteroides. The experiment is described as follows: agar dilution MIC, lactic acid bacteria. It is filed as cell-based. As to conditions: Leuconostoc mesenteroides.
In another experiment the test system is Leuconostoc lactis. Kind of experiment: agar dilution MIC, lactic acid bacteria. As to conditions: Leuconostoc lactis. In kind it is cell-based. On the technique in general: In agar dilution the substance is mixed into plates at graded concentrations.
Another experiment relates to Streptococcus pyogenes. Kind of experiment: mouse protection, experimentally-induced infection. It is filed as in vivo. As to conditions: mice infected with Streptococcus pyogenes, two doses.
The subject of experiment [9] is vancomycin-susceptible enterococci. Kind of experiment: broth micro-dilution, mean geometric MIC. It is filed as cell-based, Enterococcus faecium and Enterococcus faecalis. The conditions noted are these: 24 h, read-out: mean geometric MIC, Vancomycin Sensitive Strains.
A further experiment has as its system Pediococcus pentosaceus. The experiment is described as follows: agar dilution MIC, lactic acid bacteria. It is filed as cell-based. As to conditions: Pediococcus pentosaceus.
Experiment [10] concerns Staphylococcus aureus SA1199A. The experiment is described as follows: broth micro-dilution MIC. It is filed as cell-based. The protocol:
(§2) The MIC's were determined using a standard broth micro-dilution assay.

Experiment [11] deals with Staphylococcus aureus 489. The experiment is described as follows: broth micro-dilution MIC. In kind it is cell-based. The protocol:
as §2

For a further experiment, the system named is Leuconostoc citreum. The experiment is described as follows: agar dilution MIC, lactic acid bacteria. It is filed as cell-based.
The test system of a further experiment is Streptococcus pneumoniae. Kind of experiment: mouse protection, experimentally-induced infection. It is filed as in vivo. As to conditions: mice infected with Streptococcus pneumoniae, two doses.
The test system of another experiment is Lactobacillus confusus. Kind of experiment: agar dilution MIC, lactic acid bacteria. In kind it is cell-based. The conditions noted are these: Weissella confusa.
Experiment [12] deals with vancomycin-resistant enterococci. The experiment is described as follows: broth micro-dilution, mean geometric MIC. In kind it is cell-based, Enterococcus faecium and Enterococcus faecalis. The conditions noted are these: 24 h, read-out: mean geometric MIC, Vancomycin Resistant Strains.

Consider `CN[C@H](CC(C)C)C(=O)N[C@H]1C(=O)N[C@@H](CC(N)=O)C(=O)N[C@H]2C(=O)N[C@H]3C(=O)N[C@H](C(=O)N[C@H](C(=O)O)c4cc(O)cc(O)c4-c4cc3ccc4O)[C@H](O)c3ccc(c(Cl)c3)Oc3cc2cc(c3O[C@@H]2O[C@H](CO)[C@@H](O)[C@H](O)[C@H]2O[C@H]2C[C@](C)(N)[C@H](O)[C@H](C)O2)Oc2ccc(cc2Cl)[C@H]1O` [vancomycin, reference compound], for which the MIC is greater than 1020 µg/mL in [1]; 891 µg/mL (≈ 615 µM) against Pediococcus acidilacti; 16 µg/mL (≈ 11 µM) in experiment [2]; greater than 64 µg/mL against Entercoccus faecium 180; 4 µg/mL (≈ 2.76 µM) in experiment [3]; 8 µg/mL (≈ 5.52 µM) in experiment [4]. For the same molecule, the MIC in [5] is greater than 64 µg/mL; against Entercoccus faecium 2041 it was 2 µg/mL (≈ 1.38 µM); in [6] it was 0.25 µg/mL (≈ 0.173 µM); in experiment [7], 16 µg/mL (≈ 11 µM); against Escherichia coli EC14, greater than 64 µg/mL; in experiment [8] it was 1020 µg/mL (≈ 707 µM). In addition, the MIC in the experiment on Leuconostoc lactis is 1020 µg/mL (≈ 707 µM); in experiment [9], 3.9 µg/mL (≈ 2.69 µM); with Pediococcus pentosaceus, 1020 µg/mL (≈ 707 µM); in experiment [10], 0.125 µg/mL (≈ 0.0863 µM); in experiment [11], 0.125 µg/mL (≈ 0.0863 µM); in the experiment on Leuconostoc citreum, greater than 1020 µg/mL. The results for the MIC (against Lactobacillus confusus; in [12]) were 1020 µg/mL (≈ 707 µM) and 282 µg/mL (≈ 195 µM), respectively. For the same molecule, the ED50 in the experiment on Stapylococcus aureus stood at 1.2 mg/kg/2; with Streptococcus pyogenes it was 0.8 mg/kg/2; in the experiment on Streptococcus pneumoniae it was 1.1 mg/kg/2.

The values above are taken from patent US5840684A, “Glycopeptide antibiotic derivatives” (Eli Lilly and Company, priority 1995, dated 1998).
